Read-outs that look alike come from different tables or passages of the source.
What was measured:
[1] = design: method as in Numata et al., 2014; details: elimination half-life in serum/plasma, Pig; ref Numata et al., 2014; cited from earlier work
[2] = elimination half-life in serum/plasma, Rat, cited from earlier work
[3] = elimination half-life in serum/plasma, Human, cited from earlier work
[4] = target: Bovine serum albumin (BSA) (Bos taurus, UniProt P02769); test: in vitro; details: for difference in binding affinity, BSA affinity lower than HSA: BSA compared with HSA; for ΔTm: bovine, pH 7.4
Description: (§1) A minimum of 2 independent plates were run for each protein-ligand combination, with 3 replicates per sample on each plate. Controls on each plate included a no protein control, matching vehicle control (no ligand), and 3 concentrations of OA (1, 2, 3 mM) and/or PFHxA (0.3, 1, 3 mM) as positive controls. The concentration of albumin that yielded maximal signal-to-noise ratio was optimized for each species. […] For concentration-response analyses, PFAS stock solutions were serially diluted into HBS.

[5] = target: porcine serum albumin (PSA) (Sus scrofa, UniProt P08835); test: biochemical; details: for ΔTm: pig, pH 7.4
Description: (§2) Serum albumin stocks (1 mM) were prepared by reconstituting lyophilized stocks in HBS, with expected protein concentrations confirmed using the colorimetric Bio-Rad DC Protein Assay (Hercules, California).
as §1

[6] = target: human serum albumin (HSA) (Homo sapiens, UniProt P02768); test: biochemical
Description: as §2, §1

Rat serum albumin (RSA) = Rat serum albumin (RSA) (Rattus norvegicus, UniProt P02770); test: biochemical; details: for difference in binding affinity, RSA affinity greater than HSA: RSA compared with HSA, from DSF Kd; for ΔTm: rat, pH 7.4
Description: as §2, §1

[7] = design: method as in Death et al., 2021; details: elimination half-life in serum/plasma, Cow; ref Death et al., 2021; cited from earlier work
[8] = rat, after oral exposure; ref Fasano et al., 2006; Xie et al., 2020; cited from earlier work
[9] = pig, after oral exposure; ref Fasano et al., 2006; Xie et al., 2020; cited from earlier work
[10] = BSA, 1 = highest relative affinity, 4 = lowest
[11] = PSA compared with HSA, from DSF Kd
[12] = PSA, 1 = highest relative affinity, 4 = lowest
[13] = HSA, 1 = highest relative affinity, 4 = lowest
[14] = RSA, 1 = highest relative affinity, 4 = lowest

Chain of Bovine serum albumin (BSA) (P02769 25-607): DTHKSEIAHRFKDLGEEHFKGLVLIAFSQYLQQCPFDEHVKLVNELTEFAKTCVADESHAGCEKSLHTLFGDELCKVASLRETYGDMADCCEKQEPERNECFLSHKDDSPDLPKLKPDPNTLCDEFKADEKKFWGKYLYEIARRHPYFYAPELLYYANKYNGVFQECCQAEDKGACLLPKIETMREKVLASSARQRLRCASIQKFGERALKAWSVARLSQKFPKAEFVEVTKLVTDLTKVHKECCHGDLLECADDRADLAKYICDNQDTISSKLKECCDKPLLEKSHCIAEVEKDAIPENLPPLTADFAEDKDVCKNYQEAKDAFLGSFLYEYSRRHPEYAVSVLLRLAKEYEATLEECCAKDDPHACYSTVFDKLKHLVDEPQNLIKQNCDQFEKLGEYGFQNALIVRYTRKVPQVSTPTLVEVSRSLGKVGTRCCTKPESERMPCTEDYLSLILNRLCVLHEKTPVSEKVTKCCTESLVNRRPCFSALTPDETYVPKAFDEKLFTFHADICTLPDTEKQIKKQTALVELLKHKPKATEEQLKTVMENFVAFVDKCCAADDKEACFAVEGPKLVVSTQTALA
Chain of Rat serum albumin (RSA) (P02770 25-608): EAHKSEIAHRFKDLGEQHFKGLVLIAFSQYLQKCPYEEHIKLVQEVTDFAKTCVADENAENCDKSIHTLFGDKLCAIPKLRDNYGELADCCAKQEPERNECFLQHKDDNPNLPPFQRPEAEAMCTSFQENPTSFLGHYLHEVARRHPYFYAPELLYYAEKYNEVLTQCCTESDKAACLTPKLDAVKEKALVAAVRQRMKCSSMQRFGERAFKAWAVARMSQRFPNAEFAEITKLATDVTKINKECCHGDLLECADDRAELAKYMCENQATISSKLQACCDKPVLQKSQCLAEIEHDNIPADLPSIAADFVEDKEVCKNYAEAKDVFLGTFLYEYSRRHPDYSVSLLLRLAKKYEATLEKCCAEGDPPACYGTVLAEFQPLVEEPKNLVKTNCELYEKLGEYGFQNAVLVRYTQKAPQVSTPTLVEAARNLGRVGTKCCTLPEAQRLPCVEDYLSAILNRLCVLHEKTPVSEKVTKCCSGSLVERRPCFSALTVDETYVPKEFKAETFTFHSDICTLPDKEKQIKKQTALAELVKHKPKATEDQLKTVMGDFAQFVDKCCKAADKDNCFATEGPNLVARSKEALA
Chain of porcine serum albumin (PSA) (P08835 25-607): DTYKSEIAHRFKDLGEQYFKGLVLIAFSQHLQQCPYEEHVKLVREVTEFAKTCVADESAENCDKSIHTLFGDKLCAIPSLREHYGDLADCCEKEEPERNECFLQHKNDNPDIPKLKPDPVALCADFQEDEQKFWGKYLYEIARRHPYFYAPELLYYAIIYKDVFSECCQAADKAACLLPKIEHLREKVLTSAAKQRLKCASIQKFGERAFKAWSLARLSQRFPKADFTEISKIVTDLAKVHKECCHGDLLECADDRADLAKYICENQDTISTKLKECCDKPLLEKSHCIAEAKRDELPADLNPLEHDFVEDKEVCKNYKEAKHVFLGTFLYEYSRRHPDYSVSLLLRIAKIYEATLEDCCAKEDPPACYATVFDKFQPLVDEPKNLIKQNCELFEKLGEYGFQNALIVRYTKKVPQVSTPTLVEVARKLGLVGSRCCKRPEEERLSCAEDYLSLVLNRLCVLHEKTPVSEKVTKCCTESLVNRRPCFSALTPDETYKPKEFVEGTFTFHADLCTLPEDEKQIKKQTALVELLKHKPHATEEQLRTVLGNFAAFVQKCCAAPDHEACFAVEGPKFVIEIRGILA
Chain of human serum albumin (HSA) (P02768 25-609): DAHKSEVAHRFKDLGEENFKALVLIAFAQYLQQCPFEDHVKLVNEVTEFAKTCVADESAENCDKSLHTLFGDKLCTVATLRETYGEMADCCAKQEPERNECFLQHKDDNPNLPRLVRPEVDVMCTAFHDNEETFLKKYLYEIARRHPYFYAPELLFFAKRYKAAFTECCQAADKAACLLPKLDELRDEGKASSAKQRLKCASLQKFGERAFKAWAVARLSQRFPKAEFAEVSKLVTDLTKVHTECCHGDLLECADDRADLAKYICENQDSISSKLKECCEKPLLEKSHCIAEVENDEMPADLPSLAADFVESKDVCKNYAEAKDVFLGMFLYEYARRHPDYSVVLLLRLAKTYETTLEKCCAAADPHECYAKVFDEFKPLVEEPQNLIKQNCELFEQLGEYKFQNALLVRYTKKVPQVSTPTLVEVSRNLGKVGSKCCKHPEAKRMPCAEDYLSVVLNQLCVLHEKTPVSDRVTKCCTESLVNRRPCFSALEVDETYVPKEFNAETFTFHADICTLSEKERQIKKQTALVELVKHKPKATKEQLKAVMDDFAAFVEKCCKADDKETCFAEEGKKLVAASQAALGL

| Compound | Half-life [1] | Half-life ([2]; ref Pizzurro et al., 2019) | Half-life ([3]; ref Pizzurro et al., 2019) | rank order of binding affinity among the four albumins [4, 10] | Kd [5] | difference in binding affinity, PSA affinity greater than HSA [5, 11] | rank order of binding affinity among the four albumins [5, 12] | Kd [6] | rank order of binding affinity among the four albumins [6, 13] | Kd (Rat serum albumin (RSA)) | rank order of binding affinity among the four albumins (Rat serum albumin (RSA); [14]) | Kd [4] | difference in binding affinity, BSA affinity lower than HSA ([4]; from DSF Kd) | also measured |
| --- | --- | --- | --- | --- | --- | --- | --- | --- | --- | --- | --- | --- | --- | --- |
| O=S(=O)(O)C(F)(F)C(F)(F)C(F)(F)C(F)(F)F [PFBS, perfluorobutanesulfonic acid] | 43 days^d | 0.6–7.4 h^a | 25.8 days^a | 1 | 1250 µM | 29.4% | 2 | 1680 µM | 4 | 1410 µM | 3 |  |  | difference in binding affinity, HSA affinity lower than BSA ([4]; HSA compared with BSA, from DSF Kd): 71.0%; difference in binding affinity, RSA affinity greater than HSA (Rat serum albumin (RSA)): 17.5% |
| O=C(O)C(F)(F)C(F)(F)C(F)(F)F [PFBA, Perfluorobutanoic acid] |  | 1–9.2 h^a | 3.1 days^a | 4 | 1280 µM | 69.4% | 1 | 2640 µM | 3 | 1900 µM | 2 | 3060 µM |  |  |
| OCCC(F)(F)C(F)(F)C(F)(F)C(F)(F)C(F)(F)C(F)(F)F [6:2 FTOH, 1H, 1H, 2H, 2H-perfluorooctanol] |  |  |  |  |  |  |  |  |  |  |  |  |  | ΔTm, maximum change in melting temperature ([4]; BSA 0.18 mM, DSF, value (±SEM), N/A = nonbinding): no changes in albumin TM were detected; ΔTm, maximum change in melting temperature ([5]; PSA 0.11 mM, DSF, value (±SEM), N/A = nonbinding): no changes in albumin TM were detected; ΔTm, maximum change in melting temperature ([6]; HSA 0.13 mM, DSF, value (±SEM), N/A = nonbinding): no changes in albumin TM were detected; ΔTm, maximum change in melting temperature (Rat serum albumin (RSA); RSA 0.18 mM, DSF, value (±SEM), N/A = nonbinding): no changes in albumin TM were detected |
| O=S(=O)(O)CCC(F)(F)C(F)(F)C(F)(F)C(F)(F)C(F)(F)C(F)(F)F [6:2 FTSA, 2H, 2H, 3H, 3H-perfluorooctane-1-sulfonate] |  |  |  | 4 |  |  | 3 |  | 2 |  | 1 | 1390 µM | 108.9% | ΔTm [4]: 17.2 °C; ΔTm [5]: 8.72 °C; ΔTm ([6]; human, pH 7.4): 3.53 °C; ΔTm (Rat serum albumin (RSA)): 7.99 °C |
| O=C(O)C(F)(F)C(F)(F)C(F)(F)C(F)(F)C(F)(F)C(F)(F)C(F)(F)F [PFOA, perfluorooctanoic acid] | 236 days^d | 0.1–15 days^a | 2.3–8.5 years^a | 4 | 370 µM | 72.4% | 1 | 790 µM | 3 | 400 µM | 2 | 990 µM | 22.5% | Half-life [7]: 0.8–1.3 days^c; binding affinity of 8-carbon congener greater than 4-carbon congener ([4]; BSA, PFOA vs PFBA): 102.2%; binding affinity of 8-carbon congener greater than 4-carbon congener ([5]; PSA, PFOA vs PFBA, PFOS vs PFBS): 110.3%; binding affinity of 8-carbon congener greater than 4-carbon congener ([6]; HSA, PFOA vs PFBA, PFOS vs PFBS): 107.9%; difference in binding affinity, RSA affinity greater than HSA (Rat serum albumin (RSA)): 65.5%; binding affinity of 8-carbon congener greater than 4-carbon congener (Rat serum albumin (RSA); RSA, PFOA vs PFBA, PFOS vs PFBS): 130.4% |
| O=S(=O)(O)C(F)(F)C(F)(F)C(F)(F)C(F)(F)C(F)(F)C(F)(F)C(F)(F)C(F)(F)F [PFOS, perfluorooctanesulfonic acid] | 1.7 years^d | 24–83 days^a | 3.3–5.4 years^a |  |  |  |  | 690 µM |  |  |  |  |  | Half-life [7]: 39–120 days^c; hill slope of the biphasic melt curve [4]: 3.5 ± 0.3; rank order of binding affinity among the four albumins [4]: 4; ΔTm [4]: 15.3 °C; binding affinity of 8-carbon congener greater than 4-carbon congener [5]: 106.7%; difference in binding affinity, PSA affinity greater than HSA [5]: 57.9%; rank order of binding affinity among the four albumins [5]: 1; ΔTm [5]: 5.74 °C; binding affinity of 8-carbon congener greater than 4-carbon congener [6]: 83.5%; rank order of binding affinity among the four albumins [6]: 3; Kd ([6]; human, pH 7.4): 620 µM; ΔTm ([6]; human, pH 7.4): 15.9 °C; binding affinity of 8-carbon congener greater than 4-carbon congener (Rat serum albumin (RSA)): 108.2%; rank order of binding affinity among the four albumins (Rat serum albumin (RSA)): 2; ΔTm (Rat serum albumin (RSA)): 4.76 °C |
| OCCC(F)(F)C(F)(F)C(F)(F)C(F)(F)C(F)(F)C(F)(F)C(F)(F)C(F)(F)F [8:2 FTOH] |  |  |  |  |  |  |  |  |  |  |  |  |  | accumulation in tissues [8]: did not accumulate; accumulation in tissues [9]: did not accumulate |
| O=C(O)C(F)(OC(F)(F)C(F)(F)C(F)(F)F)C(F)(F)F (centres unmarked) [HFPO-DA, hexafluoropropylene oxide-dimer acid] |  |  |  | 4 | 2120 µM |  | 3 | 1570 µM | 1 | 1640 µM | 2 | 2550 µM | 47.6% | difference in binding affinity, HSA affinity greater than PSA ([5]; HSA compared with PSA, from DSF Kd): 29.8% |
| O=C(O)C(F)(F)C(F)(F)C(F)(F)C(F)(F)C(F)(F)F [PFHxA, Perfluorohexanoic acid] | 4.1 days^d |  |  | 4 | 950 µM | 57.1% | 1 | 1710 µM | 3 | 1330 µM | 2 | 2170 µM | 23.7% | Half-life ([2]; ref Russell et al., 2013): 0.4–9.8 h^e; Half-life ([3]; ref Lau, 2015): 32 days^b |

— article PMC11057469, “Quantitative cross-species comparison of serum albumin binding of per- and polyfluoroalkyl substances from five structural classes” (Toxicological Sciences, 2024)
